Reference: ChEMBL document CHEMBL4619714, “Amino acid prodrugs of NVR3-778: Design, synthesis and anti-HBV activity” (Bioorg Med Chem Lett, 2020)
≈ marks a conversion by molar mass, not a printed value. Blank lines part the entries; values can stand above or below the compound they belong to.

Columns and labels:
Hepatitis B virus [1] = assay: Antiviral activity against Hepatitis B virus infected in human HepG2.2.15 cells by solid phase radioimmunoassay; type: functional, organism-based; details: HepG2 2.2.15
[2] = Cytotoxicity against human HepG2.2.15 cells; type: cell-based, HepG2 2.2.15
[3] = Selectivity index, ratio of CC50 for human HepG2.2.15 cells to IC50 for Hepatitis B virus; type: toxicity; details: read-out: Ratio CC50/IC50
[4] = Half life in ICR mouse at 50 mg/kg, po; type: ADME, organism-based; details: in vivo
[5] = MRT in ICR mouse at 50 mg/kg, po; type: ADME, organism-based; details: in vivo
Hepatitis B virus [6] = assay: Antiviral activity against Hepatitis B virus infected in C57BL/6 mouse assessed as reduction in viral DNA at 0.93 mmol/kg, po administered bid and measured on day 4 by qRT-PCR analysis; type: functional
Hepatitis B virus [7] = assay: Antiviral activity against Hepatitis B virus infected in C57BL/6 mouse assessed as reduction in viral DNA at 0.93 mmol/kg, po administered bid and measured on day 2 by qRT-PCR analysis; type: functional
[8] = Solubility of compound at pH 2 by HPLC-UV analysis; type: physicochemical; details: buffer
[9] = Cmax in ICR mouse at 50 mg/kg, po; type: ADME, organism-based; design: dose 50 mg/kg, route oral; details: in vivo
[10] = Tmax in ICR mouse at 50 mg/kg, po; type: ADME, organism-based; details: in vivo
[11] = AUC (0 to t) in ICR mouse at 50 mg/kg, po; type: ADME, organism-based; details: in vivo
[12] = Toxicity in C57BL/6 mouse infected with Hepatitis B virus assessed as reduction in body weight at 0.93 mmol/kg, po administered bid and observed for 6 days; type: organism-based; details: in vivo, 144 h
[13] = Tmax in ICR mouse assessed as 4-fluoro-3-[(4-hydroxy-1-piperidyl)sulfonyl]-N-(3,4,5-trifluorophenyl)benzamide level at 50 mg/kg, po; type: ADME, organism-based; details: in vivo
[14] = MRT in ICR mouse assessed as 4-fluoro-3-[(4-hydroxy-1-piperidyl)sulfonyl]-N-(3,4,5-trifluorophenyl)benzamide level at 50 mg/kg, po; type: ADME, organism-based; details: in vivo
[15] = Solubility of compound assessed as 4-fluoro-3-[(4-hydroxy-1-piperidyl)sulfonyl]-N-(3,4,5-trifluorophenyl)benzamide level at pH 2; type: physicochemical; details: buffer
Hepatitis B virus [16] = assay: Antiviral activity against Hepatitis B virus infected in orally dosed C57BL/6 mouse assessed as reduction in viral DNA administered bid for daily and measured upto 6 days by qRT-PCR analysis; type: functional, organism-based
[17] = Cmax in ICR mouse assessed as 4-fluoro-3-[(4-hydroxy-1-piperidyl)sulfonyl]-N-(3,4,5-trifluorophenyl)benzamide level at 50 mg/kg, po; type: ADME, organism-based; design: dose 50 mg/kg, route oral; details: in vivo
[18] = Half life in ICR mouse assessed as 4-fluoro-3-[(4-hydroxy-1-piperidyl)sulfonyl]-N-(3,4,5-trifluorophenyl)benzamide level at 50 mg/kg, po; type: ADME, organism-based; details: in vivo
[19] = AUC (0 to t) in ICR mouse assessed as 4-fluoro-3-[(4-hydroxy-1-piperidyl)sulfonyl]-N-(3,4,5-trifluorophenyl)benzamide level at 50 mg/kg, po; type: ADME, organism-based; details: in vivo
[20] = Toxicity in C57BL/6 mouse infected with Hepatitis B virus assessed as reduction in body weight at 0.23 and 0.93 mmol/kg, po administered bid and observed for 6 days; type: organism-based; details: in vivo, 144 h
Hepatitis B virus [21] = assay: Antiviral activity against Hepatitis B virus infected in C57BL/6 mouse assessed as reduction in viral DNA at 0.1 mg/kg, po measured upto 6 days by qRT-PCR analysis; type: functional

SMILES: CC(C)C[C@H](N)C(=O)OC1CCN(S(=O)(=O)c2cc(C(=O)Nc3cc(F)c(F)c(F)c3)ccc2F)CC1
IC50 (Hepatitis B virus [1]): 280 nM
CC50 [2]: 5.77 µM
selectivity ratio [3]: 20.6

SMILES: O=C(Nc1cc(F)c(F)c(F)c1)c1ccc(F)c(S(=O)(=O)N2CCC(O)CC2)c1
IC50 (Hepatitis B virus [1]): 260 nM
half-life [4]: 488 min
MRT [5]: 10.7 h
CC50 [2]: 4.81 µM
Activity (Hepatitis B virus [6]): 0.6 log10IU/ml
Activity (Hepatitis B virus [7]): 0.53 log10IU/ml
selectivity ratio [3]: 18.5
solubility [8]: 3 µg/mL (≈ 6.94 µM)
Cmax [9]: 66100 ng/mL
Tmax [10]: 64.8 min
AUC(0-t) [11]: 456 µg·h/mL
Activity [12]: Non-Toxic

SMILES: NCC(=O)OC1CCN(S(=O)(=O)c2cc(C(=O)Nc3cc(F)c(F)c(F)c3)ccc2F)CC1
IC50 (Hepatitis B virus [1]): 1400 nM
CC50 [2]: > 10 µM
selectivity ratio [3]: > 7.1

SMILES: C=C1[C@H](CO)[C@@H](O)C[C@@H]1n1cnc2c(=O)[nH]c(N)nc21.O [ENTECAVIR]
Activity (Hepatitis B virus [21]): 1.67 log10IU/ml

The remaining compounds from weak to strong by IC50 (Hepatitis B virus [1]), led by results:

IC50 (Hepatitis B virus [1]): 560 nM
SMILES: CC(C)(C)[C@H](N)C(=O)OC1CCN(S(=O)(=O)c2cc(C(=O)Nc3cc(F)c(F)c(F)c3)ccc2F)CC1
CC50 [2]: > 10 µM
selectivity ratio [3]: > 17.9

IC50 (Hepatitis B virus [1]): 380 nM
SMILES: CCC(C)[C@H](N)C(=O)OC1CCN(S(=O)(=O)c2cc(C(=O)Nc3cc(F)c(F)c(F)c3)ccc2F)CC1 (some centres undefined)
CC50 [2]: > 10 µM
selectivity ratio [3]: > 26.3

IC50 (Hepatitis B virus [1]): 350 nM
SMILES: N[C@@H](Cc1ccccc1)C(=O)OC1CCN(S(=O)(=O)c2cc(C(=O)Nc3cc(F)c(F)c(F)c3)ccc2F)CC1
CC50 [2]: > 10 µM
selectivity ratio [3]: > 28.6

Tmax [13]: 30 min
IC50 (Hepatitis B virus [1]): 340 nM
half-life [4]: 73.8 min
MRT [14]: 4.66 h
MRT [5]: 0.97 h
solubility [15]: 0.7 mg/mL (≈ 1320 µM)
Cmax [17]: 45.17 µg/mL
t1/2 [18]: 3.53 h
Cmax [9]: 11500 ng/mL
AUCt [19]: 258.9 µg·h/mL
Tmax [10]: 15 min
AUC(0-t) [11]: 6.65 µg·h/mL
SMILES: CC(C)[C@H](N)C(=O)OC1CCN(S(=O)(=O)c2cc(C(=O)Nc3cc(F)c(F)c(F)c3)ccc2F)CC1
CC50 [2]: > 10 µM
Activity (Hepatitis B virus [6]): 0.67 log10IU/ml
Activity (Hepatitis B virus [16]): Dose-dependent effect
Activity (Hepatitis B virus [7]): 0.75 log10IU/ml
selectivity ratio [3]: > 29.4
Activity [20]: Non-Toxic

IC50 (Hepatitis B virus [1]): 280 nM
SMILES: C[C@H](N)C(=O)OC1CCN(S(=O)(=O)c2cc(C(=O)Nc3cc(F)c(F)c(F)c3)ccc2F)CC1
CC50 [2]: 4.81 µM
selectivity ratio [3]: 17.2
